Reference: patent publication US7405038B1, “Stable cell lines resistant to apoptosis and nutrient stress and methods of making same” (Boyce Thompson Institute for Plant Research, Inc., priority 2000, dated 2008)
Numbered stars: 1 amine (or outer) side, 2 acyl side, 3 side chain; on linkers, the order of the positions; unused ones are H or OH. Bridge positions count the residues as written; N and C are the ends. Square brackets hold non-standard residues; d marks the D form. Peptide text beside a SMILES is read from it. I, II: the chains in the order shown. Actinocin(9to1) = Cc1c2oc3c(C)ccc(C(=O)[*:1])c3nc-2c(C(=O)[*:2])c(N)c1=O; NMeV = CN[C@H](C(=O)O)C(C)C; Sar = CNCC(=O)O

Tested on: surviving transfected Sf9 cells
Test: Actinomycin D selection of G418-selected transfected cells
Format: cell-based, Spodoptera frugiperda
Conditions: 0.1 μg/ml actinomycin D for 1 hour, then fresh TNMFH; after three days
Description: In order to select cells expressing higher levels of functional P35, the surviving transfected cells were placed in medium containing 0.1 μg/ml actinomycin D for 1 hour. Another example of an inducer of apoptosis that could be used to select cells resistant to apoptosis is UV irradiation. In mammalian cells, inducers of apoptosis such as tumor necrosis factor (TNF) could also be used. The selection using an inducer of apoptosis could alternatively be performed without cotransfection with a selectable marker such as an antibiotic resistance gene.
At the end of the one hour incubation in actinomycin D, the medium was replaced with fresh TNMFH medium (containing no actinomycin D) and cells were allowed to grow for three days. After three days, 85-90% of the cells treated with actinomycin D-containing medium died. Medium was replaced after 3 days and surviving single cells formed small colonies which were subsequently propagated and used to clone individual cell lines by limiting dilution. For limiting dilution cloning, cells were diluted into 96 well plates such that each well received only one cell on average. Each well was subsequently monitored to ensure that only a single colony was present. Monoclonal cell lines were selected and propagated. Cell lines expressing the native P35 protein were named Sf9^P35, and lines expressing the epitope tagged P35 protein were named Sf9^P35AcV5. […]

Compound: Cc1c2oc3c(C)ccc(C(=O)N[C@@H]4C(=O)N[C@H](C(C)C)C(=O)N5CCC[C@H]5C(=O)N(C)CC(=O)N(C)[C@@H](C(C)C)C(=O)O[C@@H]4C)c3nc-2c(C(=O)N[C@@H]2C(=O)N[C@H](C(C)C)C(=O)N3CCC[C@H]3C(=O)N(C)CC(=O)N(C)[C@@H](C(C)C)C(=O)O[C@@H]2C)c(N)c1=O [Actinomycin D, actinomycin D] (I: T[dV]P[Sar][NMeV] / II: T[dV]P[Sar][NMeV]; ester I:1-I:C, II:1-II:C; linker I:N-II:N via Actinocin(9to1))
- cells treated with actinomycin D-containing medium that died: 85-90%
